These results are taken from BindingDB's records for PubMed 1320692 (Ciba-Geigy, 1992).

SMILES strings stand for the structures. Several values for one entry are separate records, joined by “and”; a condition that tells them apart may be missing. Equal values may be shown once.

The Ki is the equilibrium dissociation constant of an inhibitor or competing ligand from its target.

This assay has as its target T1, Leukotriene B4 receptor 2 (Homo sapiens, UniProt Q9NPC1).
T1 sequence (Q9NPC1 whole entry): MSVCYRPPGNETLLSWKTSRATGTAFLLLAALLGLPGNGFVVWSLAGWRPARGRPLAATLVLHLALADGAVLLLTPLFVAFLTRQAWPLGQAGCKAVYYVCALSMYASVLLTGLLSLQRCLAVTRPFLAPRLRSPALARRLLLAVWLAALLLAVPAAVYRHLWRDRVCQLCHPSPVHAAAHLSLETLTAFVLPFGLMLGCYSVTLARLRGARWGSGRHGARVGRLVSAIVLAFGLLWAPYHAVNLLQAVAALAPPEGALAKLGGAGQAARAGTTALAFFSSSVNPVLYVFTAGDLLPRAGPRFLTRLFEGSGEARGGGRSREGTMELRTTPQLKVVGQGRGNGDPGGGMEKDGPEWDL
With `COc1ccc(/C=C/CCCCOc2ccc(C(=O)c3cccc(C(=O)O)c3)cc2CCC(=O)O)cc1` [(Z)-3-{3-(2-Carboxy-ethyl)-4-[6-(4-methoxy-phenyl)-hex-5-enyloxy]-benzoyl}-benzoic acid], the Ki is 35 nM and 15 nM.

In the case of `CCCCCCCCC(O)/C=C/c1cccc(C)n1` (centres undefined) [CGS 23114], the Ki amounted to 885 nM. In other words, the sub-micromolar range.

Regarding `COc1ccc(/C=C/CCCCOc2ccc(Oc3cccc(C(=O)O)c3)cc2CCC(=O)O)cc1` [CGS 23130], the Ki was 24 nM and 8 nM.

With `CCc1cc(C(C)=O)c(O)cc1OCCCCC(C)(C)c1nnn[nH]1` [CGS 23167], the Ki was 293 nM and 364 nM.
